Experimental data published in patent US20230265098A1, “ALKYNE QUINAZOLINE DERIVATIVES AS INHIBITORS OF ERBB2” (EnLiven Therapeutics, Inc., priority 2020, published 2023).

Assays:
[1] = biological target: T1, phosphorylated ERBB2 (pERBB2) (Homo sapiens, UniProt P04626); assay: Detection of phosphorylated ERBB2 (pERBB2) by ELISA in BT-474 cells; assay type: cell-based; details: four hours incubation with compound, OD 450 nm
T1 construct: endogenous in cells; host or cells: BT-474
Protocol: BT-474 cells were seeded into a 96-well at 2.0*10^4 cells/100 μl/well.
Compounds were dissolved and serially diluted in DMSO. The compounds were then were added, mixed, and incubated for four hours at 37° C., 5% CO2. Compounds were added using four-fold dilutions at final concentrations ranging from 10 μM to 0.01 nM.
Following the four hour incubation with compounds, cell lysates were prepared. Plates were centrifuged for 5 min at 3000 RPM, and supernatant was removed from each well. Cells were washed 3 times by resuspension in 150 μl PBS, followed by centrifugation and removal of the supernatant, as above. […] Cells were incubated with lysis buffer for 1 hour at 4° C., and then stored at −80° C.
Enzyme-linked immunosorbent assays (ELISA) were performed to measure phosphorylated ERBB2 levels. […] The next day, plates were washed with PBS+0.05% Tween20 (PBST). 150 μl of 5% BSA blocking solution was added for 1 hour at room temperature, with shaking. Plates were washed with PBST. Cell lysates were thawed and 100 μl of lysate was added to the ELISA plate. The plates were incubated for 2 hours at room temperature, with shaking. […] Plates were incubated for 1 hour at room temperature, with shaking. Plates were then washed with PBST, and 100 μl TMB substrate solution (R&D Systems, cat #DY999) was added. Plate were incubated in the dark for 20 minutes at room temperature. 50 μl of Stop solution (R&D Systems, cat #DY994) (50 μl) was added to each well and mixed.
Optical density at 450 nm was read on an EnSpire plate reader (Perkin Elmer). The remaining kinase activity by calculated using the following formula: % Relative activity=100×(A450sample−A450LC)/(A450HC−A450LC). The low and high control values (“LC” and “HC”) were generated from lysate from wells without cells or with cells treated with 0.1% DMSO, respectively.

[2] = tested on: BT-474 cells; assay: Cell viability assay (CellTiter Glo); assay type: cell-based; details: Homo sapiens, 72 hours, 2000 cells per well, 384-well, DMEM + 10% FBS
Protocol: (§1) Cells were treated with compounds, and cell viability was measured as a metric of kinase inhibition.
(§2) The Ba/F3 cell line is IL-3-dependent mouse cell line derived from the C3H mouse strain. Ba/F3 cell lines were engineered to express human ERBB2 or EGFR kinases, rendering the cells IL-3 independent. The lines were generated via retroviral transduction utilizing a Moloney murine leukemia virus (MMLV) promoter, and constructs are stably integrated into the cell genome.
(§3) Similarly, Ba/F3 cell lines engineered to express EGFR, ERBB2, or ERBB2 mutants were grown, harvested, counted and seeded at 3000 cells per well in 96-well plates for the data sets shown in Tables B3-B4, and seeded at 300 cells per well in 384-well plates for the data set shown in Table B5. A subset of wells contained media only (low control, “LC”).
(§4) Table B2 provides the growth media and number of cells seeded per well for the each cell line.
(§5) Compounds were dissolved in DMSO and serially diluted. Serially-diluted compound or a DMSO only control (high control, “HC”) was added to the plated cells in each well. […] The final proportion of DMSO never exceeded 0.1%.
(§6) Plates were placed in a 37° C., 5% CO2 incubator for 72 hours. Plates were then removed from the incubator and equilibrated for 15 minutes at room temperature. 40 IA of CellTiter Glo reagent (Promega) was added to measure the relative level of metabolically active cells by quantifying intracellular ATP concentrations. Plates were incubated for 30 minutes at room temperature, and luminescence was measured. Percent viability was normalized to a vehicle control only using the following formula: % viability=100×(LumSample−LumLC) (LumHC−LumLC). Graphical curves were fitted using a nonlinear regression model with a sigmoidal dose response.

[3] = tested on: MDA-MB-175VII cells; assay: Cell viability assay (CellTiter Glo); assay type: cell-based; details: Homo sapiens, 72 hours, 2000 cells per well, 384-well, RPMI + 10% FBS
Protocol: as §1, §2, §3, §4, §5, §6

[4] = tested on: A431 cells; assay: Cell viability assay (CellTiter Glo); assay type: cell-based; details: Homo sapiens, A-431; 72 hours; 1500 cells per well, 384-well; DMEM + 10% FBS
Protocol: as §1, §2, §3, §4, §5, §6

[5] = biological target: T2, Ba/F3 ERBB2-L869R (Homo sapiens, UniProt P04626, L869R, cells depend on it); assay: Cell viability assay (CellTiter Glo); assay type: cell-based, mouse; details: 72 hours; 3000 cells per well, 96-well plates; read-out: Cell viability IC50, nM, Ba/F3 ERBB2-L869R
T2 construct: Ba/F3 cell lines were engineered to express human ERBB2 or EGFR kinases, rendering the cells IL-3 independent
Protocol: as §1, §2, §3, §4, §5, §6

[6] = biological target: T3, Ba/F3 ERBB2 wt (Homo sapiens, UniProt P04626); assay: Cell viability assay (CellTiter Glo); assay type: cell-based, mouse; details: 72 hours; 3000 cells per well, 96-well plates; read-out: Cell viability IC50, nM, Ba/F3 ERBB2 wt
T3 construct: Ba/F3 cell lines were engineered to express human ERBB2 or EGFR kinases, rendering the cells IL-3 independent
Protocol: as §1, §2, §3, §4, §5, §6

[7] = biological target: T4, Ba/F3 ERBB2 A775_G776insYVMA (Homo sapiens, UniProt P04626, DUP772-775, cells depend on it); assay: Cell viability assay (CellTiter Glo); assay type: cell-based, mouse; details: 72 hours; 3000 cells per well, 96-well plates (Tables B3-B4); read-out: Cell viability IC50, nM, Ba/F3 ERBB2 A775_G776insYVMA
T4 construct: Ba/F3 cell lines were engineered to express human ERBB2 or EGFR kinases, rendering the cells IL-3 independent
Protocol: as §1, §2, §3, §4, §5, §6

[8] = biological target: T5, Ba/F3 ERBB2-V777_G778insGC (Homo sapiens, UniProt P04626, INS778CG, cells depend on it); assay: Cell viability assay (CellTiter Glo); assay type: cell-based, mouse; details: 72 hours; 3000 cells per well, 96-well plates; read-out: Cell viability IC50, nM, Ba/F3 ERBB2-V777_G778insGC
T5 construct: Ba/F3 cell lines were engineered to express human ERBB2 or EGFR kinases, rendering the cells IL-3 independent
Protocol: as §1, §2, §3, §4, §5, §6

[9] = biological target: T6, Ba/F3 ERBB2-V777L (Homo sapiens, UniProt P04626, V777L, cells depend on it); assay: Cell viability assay (CellTiter Glo); assay type: cell-based, mouse; details: 72 hours; 3000 cells per well, 96-well plates; read-out: Cell viability IC50, nM, Ba/F3 ERBB2-V777L
T6 construct: Ba/F3 cell lines were engineered to express human ERBB2 or EGFR kinases, rendering the cells IL-3 independent
Protocol: as §1, §2, §3, §4, §5, §6

[10] = biological target: T7, Ba/F3 ERBB2-L755S (Homo sapiens, UniProt P04626, L755S, cells depend on it); assay: Cell viability assay (CellTiter Glo); assay type: cell-based, mouse; details: 72 hours; 3000 cells per well, 96-well plates; read-out: Cell viability IC50, nM, Ba/F3 ERBB2-L755S
T7 construct: Ba/F3 cell lines were engineered to express human ERBB2 or EGFR kinases, rendering the cells IL-3 independent
Protocol: as §1, §2, §3, §4, §5, §6

[11] = biological target: T8, Ba/F3 ERBB2-G776VC (Homo sapiens, UniProt P04626, DELINS776-776VC, cells depend on it); assay: Cell viability assay (CellTiter Glo); assay type: cell-based, mouse; details: 72 hours; 3000 cells per well, 96-well plates; read-out: Cell viability IC50, nM, Ba/F3 ERBB2-G776VC
T8 construct: Ba/F3 cell lines were engineered to express human ERBB2 or EGFR kinases, rendering the cells IL-3 independent
Protocol: as §1, §2, §3, §4, §5, §6

[12] = biological target: T9, Ba/F3 ERBB2-T798M (Homo sapiens, UniProt P04626, T798M, cells depend on it); assay: Cell viability assay (CellTiter Glo); assay type: cell-based, mouse; details: 72 hours; 3000 cells per well, 96-well plates; read-out: Cell viability IC50, nM, Ba/F3 ERBB2-T798M
T9 construct: Ba/F3 cell lines were engineered to express human ERBB2 or EGFR kinases, rendering the cells IL-3 independent
Protocol: as §1, §2, §3, §4, §5, §6

[13] = biological target: T10, Ba/F3 ERBB2-P780_Y781insGSP (Homo sapiens, UniProt P04626, DUP778-780, cells depend on it); assay: Cell viability assay (CellTiter Glo); assay type: cell-based, mouse; details: 72 hours; 3000 cells per well, 96-well plates; read-out: Cell viability IC50, nM, Ba/F3 ERBB2-P780_Y781insGSP
T10 construct: Ba/F3 cell lines were engineered to express human ERBB2 or EGFR kinases, rendering the cells IL-3 independent
Protocol: as §1, §2, §3, §4, §5
as §6, with “Percent viability was normalized to a vehicle control only using the following formula: % viability=100×(LumSample−LumLC) (LumHC−LumLC).” left out

T10 sequence (P04626 with tags, fused parts or gaps DUP778-780): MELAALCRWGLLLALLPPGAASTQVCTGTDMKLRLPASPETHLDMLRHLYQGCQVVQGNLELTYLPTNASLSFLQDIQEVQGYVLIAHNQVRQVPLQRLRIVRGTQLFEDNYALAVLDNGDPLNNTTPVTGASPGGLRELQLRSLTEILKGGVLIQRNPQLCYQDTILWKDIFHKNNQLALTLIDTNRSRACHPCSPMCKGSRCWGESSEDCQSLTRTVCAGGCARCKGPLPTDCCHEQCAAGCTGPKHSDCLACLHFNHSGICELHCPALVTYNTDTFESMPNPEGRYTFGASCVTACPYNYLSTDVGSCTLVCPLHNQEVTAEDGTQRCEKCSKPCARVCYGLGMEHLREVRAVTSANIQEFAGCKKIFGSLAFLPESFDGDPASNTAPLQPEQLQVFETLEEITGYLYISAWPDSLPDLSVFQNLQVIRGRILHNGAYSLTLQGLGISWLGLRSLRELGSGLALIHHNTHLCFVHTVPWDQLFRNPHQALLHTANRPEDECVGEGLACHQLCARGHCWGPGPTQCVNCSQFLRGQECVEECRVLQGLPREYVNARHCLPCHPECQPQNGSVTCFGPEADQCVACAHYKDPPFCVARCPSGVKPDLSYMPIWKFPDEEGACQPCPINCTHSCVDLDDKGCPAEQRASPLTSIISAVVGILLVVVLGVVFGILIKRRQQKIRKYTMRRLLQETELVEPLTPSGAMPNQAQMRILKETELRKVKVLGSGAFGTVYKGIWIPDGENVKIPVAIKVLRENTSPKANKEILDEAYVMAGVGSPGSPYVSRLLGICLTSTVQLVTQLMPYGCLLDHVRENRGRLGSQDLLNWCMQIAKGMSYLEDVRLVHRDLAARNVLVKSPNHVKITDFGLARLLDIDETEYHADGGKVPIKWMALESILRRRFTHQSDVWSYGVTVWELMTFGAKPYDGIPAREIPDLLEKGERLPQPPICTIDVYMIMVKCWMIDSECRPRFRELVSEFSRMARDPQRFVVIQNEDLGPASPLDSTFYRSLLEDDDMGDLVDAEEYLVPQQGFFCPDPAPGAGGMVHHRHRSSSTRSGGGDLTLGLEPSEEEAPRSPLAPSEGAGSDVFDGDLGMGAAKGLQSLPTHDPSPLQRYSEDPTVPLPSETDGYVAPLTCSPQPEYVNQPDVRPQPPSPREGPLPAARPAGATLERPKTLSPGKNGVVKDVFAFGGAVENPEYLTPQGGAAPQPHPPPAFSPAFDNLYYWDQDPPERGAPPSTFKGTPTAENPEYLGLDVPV
T1 sequence (P04626 23-1255): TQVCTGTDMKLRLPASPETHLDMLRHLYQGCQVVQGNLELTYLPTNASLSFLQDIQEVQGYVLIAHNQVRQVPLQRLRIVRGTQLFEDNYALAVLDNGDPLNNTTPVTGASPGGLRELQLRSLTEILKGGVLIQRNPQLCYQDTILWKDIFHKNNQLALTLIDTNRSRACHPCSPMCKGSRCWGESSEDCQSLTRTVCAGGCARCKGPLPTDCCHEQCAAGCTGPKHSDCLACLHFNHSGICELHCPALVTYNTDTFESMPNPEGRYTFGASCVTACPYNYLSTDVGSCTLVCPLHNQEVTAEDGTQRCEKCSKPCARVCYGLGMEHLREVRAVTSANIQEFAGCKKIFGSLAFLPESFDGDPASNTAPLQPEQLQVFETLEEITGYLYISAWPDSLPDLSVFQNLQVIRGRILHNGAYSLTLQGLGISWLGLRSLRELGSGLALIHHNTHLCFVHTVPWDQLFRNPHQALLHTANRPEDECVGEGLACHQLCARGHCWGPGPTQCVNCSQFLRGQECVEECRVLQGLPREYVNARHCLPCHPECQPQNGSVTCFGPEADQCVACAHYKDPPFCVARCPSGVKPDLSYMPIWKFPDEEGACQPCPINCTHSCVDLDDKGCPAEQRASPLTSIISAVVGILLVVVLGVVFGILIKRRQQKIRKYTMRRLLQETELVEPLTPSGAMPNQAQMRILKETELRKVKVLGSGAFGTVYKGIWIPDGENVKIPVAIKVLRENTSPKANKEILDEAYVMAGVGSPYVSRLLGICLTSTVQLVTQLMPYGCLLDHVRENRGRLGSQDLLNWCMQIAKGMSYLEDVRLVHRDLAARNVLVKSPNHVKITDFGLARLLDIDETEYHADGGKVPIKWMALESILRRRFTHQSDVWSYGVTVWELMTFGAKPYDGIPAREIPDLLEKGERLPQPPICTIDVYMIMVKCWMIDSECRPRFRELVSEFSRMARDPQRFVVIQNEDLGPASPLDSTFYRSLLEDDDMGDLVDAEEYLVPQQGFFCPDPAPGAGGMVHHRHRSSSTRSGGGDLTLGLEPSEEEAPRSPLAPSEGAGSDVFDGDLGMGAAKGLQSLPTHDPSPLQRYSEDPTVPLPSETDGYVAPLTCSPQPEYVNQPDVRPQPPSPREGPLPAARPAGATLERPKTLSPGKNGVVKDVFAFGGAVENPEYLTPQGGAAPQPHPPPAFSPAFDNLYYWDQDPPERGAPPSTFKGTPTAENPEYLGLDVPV
T3 sequence (P04626 whole entry, change not shown): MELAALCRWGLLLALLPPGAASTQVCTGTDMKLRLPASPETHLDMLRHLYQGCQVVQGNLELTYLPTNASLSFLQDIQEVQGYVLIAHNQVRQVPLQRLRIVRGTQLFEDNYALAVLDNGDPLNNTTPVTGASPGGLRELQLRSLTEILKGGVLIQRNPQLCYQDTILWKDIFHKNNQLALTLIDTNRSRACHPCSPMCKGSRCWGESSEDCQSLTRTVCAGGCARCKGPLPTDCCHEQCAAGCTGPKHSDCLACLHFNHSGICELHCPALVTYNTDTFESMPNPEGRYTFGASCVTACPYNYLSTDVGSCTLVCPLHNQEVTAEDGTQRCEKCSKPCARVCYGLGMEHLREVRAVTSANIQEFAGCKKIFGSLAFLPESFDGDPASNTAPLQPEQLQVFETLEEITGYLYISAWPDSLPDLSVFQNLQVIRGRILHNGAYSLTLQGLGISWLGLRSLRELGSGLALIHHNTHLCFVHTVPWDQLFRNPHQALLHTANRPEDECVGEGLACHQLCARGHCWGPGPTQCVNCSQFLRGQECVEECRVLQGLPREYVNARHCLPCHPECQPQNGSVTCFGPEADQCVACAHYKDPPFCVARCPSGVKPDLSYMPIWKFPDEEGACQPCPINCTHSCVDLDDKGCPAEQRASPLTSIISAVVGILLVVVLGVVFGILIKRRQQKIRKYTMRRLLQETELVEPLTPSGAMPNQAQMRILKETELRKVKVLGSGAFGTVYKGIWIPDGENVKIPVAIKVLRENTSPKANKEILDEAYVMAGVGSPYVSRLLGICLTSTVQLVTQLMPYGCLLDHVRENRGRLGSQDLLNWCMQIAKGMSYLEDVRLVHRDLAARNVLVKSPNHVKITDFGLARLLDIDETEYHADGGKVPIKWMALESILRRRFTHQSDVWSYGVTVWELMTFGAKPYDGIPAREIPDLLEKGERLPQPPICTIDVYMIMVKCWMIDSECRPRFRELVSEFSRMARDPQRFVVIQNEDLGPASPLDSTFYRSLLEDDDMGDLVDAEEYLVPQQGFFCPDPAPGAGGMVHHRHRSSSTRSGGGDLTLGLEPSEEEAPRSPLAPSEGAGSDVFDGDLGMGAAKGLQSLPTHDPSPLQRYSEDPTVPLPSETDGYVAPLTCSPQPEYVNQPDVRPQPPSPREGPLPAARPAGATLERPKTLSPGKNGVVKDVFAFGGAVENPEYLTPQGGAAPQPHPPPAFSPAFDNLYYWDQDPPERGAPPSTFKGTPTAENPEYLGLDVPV
T8 sequence (P04626 with tags, fused parts or gaps DELINS776-776VC): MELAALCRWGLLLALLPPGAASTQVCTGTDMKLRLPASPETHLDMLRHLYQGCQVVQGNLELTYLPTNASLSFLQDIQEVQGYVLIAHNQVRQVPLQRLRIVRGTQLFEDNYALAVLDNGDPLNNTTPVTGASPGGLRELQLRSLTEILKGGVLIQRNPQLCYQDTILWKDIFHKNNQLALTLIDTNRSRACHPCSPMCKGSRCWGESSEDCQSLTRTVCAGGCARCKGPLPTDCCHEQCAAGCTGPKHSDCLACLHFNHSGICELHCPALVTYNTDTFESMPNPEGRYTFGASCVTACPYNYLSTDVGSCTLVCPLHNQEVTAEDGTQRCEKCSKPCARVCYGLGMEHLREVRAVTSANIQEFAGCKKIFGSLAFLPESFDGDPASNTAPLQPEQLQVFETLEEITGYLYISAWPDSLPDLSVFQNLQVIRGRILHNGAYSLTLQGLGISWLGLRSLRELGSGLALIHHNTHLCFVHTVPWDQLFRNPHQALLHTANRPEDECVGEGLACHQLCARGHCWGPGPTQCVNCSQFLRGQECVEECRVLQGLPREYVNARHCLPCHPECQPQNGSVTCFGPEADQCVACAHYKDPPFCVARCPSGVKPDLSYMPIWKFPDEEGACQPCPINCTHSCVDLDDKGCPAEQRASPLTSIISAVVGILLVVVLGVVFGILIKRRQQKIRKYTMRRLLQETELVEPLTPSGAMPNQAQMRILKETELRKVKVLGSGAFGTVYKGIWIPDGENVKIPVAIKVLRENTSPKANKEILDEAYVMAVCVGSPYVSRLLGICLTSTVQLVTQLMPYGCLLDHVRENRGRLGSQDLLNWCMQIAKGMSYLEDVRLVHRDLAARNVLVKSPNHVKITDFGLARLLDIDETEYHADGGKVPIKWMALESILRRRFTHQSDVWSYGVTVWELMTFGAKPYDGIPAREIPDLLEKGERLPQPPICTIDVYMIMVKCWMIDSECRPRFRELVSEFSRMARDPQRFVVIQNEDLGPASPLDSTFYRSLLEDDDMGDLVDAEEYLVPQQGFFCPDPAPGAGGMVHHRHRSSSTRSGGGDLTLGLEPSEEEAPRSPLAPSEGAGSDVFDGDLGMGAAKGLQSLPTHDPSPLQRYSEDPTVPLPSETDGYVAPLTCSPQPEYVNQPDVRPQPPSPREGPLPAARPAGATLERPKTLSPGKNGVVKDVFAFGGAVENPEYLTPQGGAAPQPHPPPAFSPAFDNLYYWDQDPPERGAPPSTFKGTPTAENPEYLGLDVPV

Row | IC50 [1] [µM] | IC50 [2] [nM] | IC50 [3] [nM] | IC50 [4] [nM] | SMILES | GI50 [5] [nM] | GI50 [6] [nM] | GI50 [7] [nM] | GI50 [8] [nM] | GI50 [9] [nM] | GI50 [10] [nM] | GI50 [11] [nM] | GI50 [12] [nM] | GI50 [13] [nM]
1 | 0.0439 | 12.3 | 142 | 454 | CC#CC(=O)Nc1ccc2ncnc(Nc3ccc(Oc4ccc(C)nc4)cc3)c2c1 [Compound 9, N-[4-([4-[(6-methylpyridin-3-yl)oxy]phenyl]amino)quinazolin-6-yl]but-2-ynamide] | 15 | 5.7 | 20 | 2.4 | 4.1 | 35 | 21 | 239 | 5.5
2 | 0.0749 | 35.5 | 232 | 1080 | CC#CC(=O)Nc1ccc2ncnc(Nc3ccc(Oc4cnc(C)cn4)cc3)c2c1 [Compound 10, N-[4-([4-[(5-methylpyrazin-2-yl)oxy]phenyl]amino)quinazolin-6-yl]but-2-ynamide] | 15 | 13.1 | 49 | 9.3 | 7.3 | 81 | 81 | 220 | 16
3 | 0.152 | 13.5 | 43.3 | 4440 | CC#CC(=O)Nc1ccc2ncnc(Nc3ccc(Oc4ccn(C)c(=O)c4)c(C)c3)c2c1 [Compound 3, N-[4-([3-methyl-4-[(1-methyl-2-oxopyridin-4-yl)oxy]phenyl]amino)quinazolin-6-yl]but-2-ynamide] | – | 18 | 8.1 | – | – | – | 30 | – | 7.1
